Source: paper PMC7316778 (Nature Communications, 2020)
“And” between values parts separate entries of the source, which are not always exact repeats. Equal entries are not always repeated. Where two headings read alike, the source gives them in different places.

What was measured:
CLK1 = CLK1 (Homo sapiens, UniProt P49759); assay: SelectScreen kinase assay
Method: (§1) Selectivity profiling assays were performed by the Invitrogen SelectScreen™ Services. […] The concentration of ATP was selected to be equal to the KM, unless indicated otherwise.

EGFR (ErbB1) = EGFR (ErbB1) (Homo sapiens, UniProt P00533); assay: SelectScreen kinase assay
Method: as §1

EPHB4 = target: T1, EPHB4 (Homo sapiens, UniProt P54760); assay: SelectScreen kinase assay; conditions: for Inhibition at 1 µM (%): EPHB4, ZLYTE, ATP Km app
T1 sequence (P54760 16-987): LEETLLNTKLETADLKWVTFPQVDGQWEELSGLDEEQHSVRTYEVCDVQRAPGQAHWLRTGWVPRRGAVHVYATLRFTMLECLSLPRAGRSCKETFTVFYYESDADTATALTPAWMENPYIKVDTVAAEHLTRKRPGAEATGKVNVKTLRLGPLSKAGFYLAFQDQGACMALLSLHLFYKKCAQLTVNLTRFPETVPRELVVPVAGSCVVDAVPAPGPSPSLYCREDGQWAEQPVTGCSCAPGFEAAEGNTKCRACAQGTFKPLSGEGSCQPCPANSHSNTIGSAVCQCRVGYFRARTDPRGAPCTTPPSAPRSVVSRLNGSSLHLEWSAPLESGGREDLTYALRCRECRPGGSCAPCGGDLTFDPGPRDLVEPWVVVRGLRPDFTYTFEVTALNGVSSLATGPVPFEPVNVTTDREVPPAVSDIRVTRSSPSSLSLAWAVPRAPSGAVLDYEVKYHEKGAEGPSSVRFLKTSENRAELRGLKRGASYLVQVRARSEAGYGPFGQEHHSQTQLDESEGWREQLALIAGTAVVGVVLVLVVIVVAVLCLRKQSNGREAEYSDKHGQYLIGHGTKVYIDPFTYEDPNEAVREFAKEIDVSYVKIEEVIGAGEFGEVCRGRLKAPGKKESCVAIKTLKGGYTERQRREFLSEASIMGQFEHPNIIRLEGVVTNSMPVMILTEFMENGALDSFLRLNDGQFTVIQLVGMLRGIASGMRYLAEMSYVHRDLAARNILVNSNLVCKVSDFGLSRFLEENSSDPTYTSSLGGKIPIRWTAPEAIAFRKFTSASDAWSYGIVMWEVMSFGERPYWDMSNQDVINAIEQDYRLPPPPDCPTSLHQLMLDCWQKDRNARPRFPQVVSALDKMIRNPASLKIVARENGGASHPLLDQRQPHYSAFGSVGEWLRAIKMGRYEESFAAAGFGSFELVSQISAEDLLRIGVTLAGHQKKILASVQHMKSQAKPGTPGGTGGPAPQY
Method: as §1

JAK3 = target: T2, JAK3 (Homo sapiens, UniProt P52333); assay: SelectScreen kinase assay
T2 sequence (P52333 1-1124): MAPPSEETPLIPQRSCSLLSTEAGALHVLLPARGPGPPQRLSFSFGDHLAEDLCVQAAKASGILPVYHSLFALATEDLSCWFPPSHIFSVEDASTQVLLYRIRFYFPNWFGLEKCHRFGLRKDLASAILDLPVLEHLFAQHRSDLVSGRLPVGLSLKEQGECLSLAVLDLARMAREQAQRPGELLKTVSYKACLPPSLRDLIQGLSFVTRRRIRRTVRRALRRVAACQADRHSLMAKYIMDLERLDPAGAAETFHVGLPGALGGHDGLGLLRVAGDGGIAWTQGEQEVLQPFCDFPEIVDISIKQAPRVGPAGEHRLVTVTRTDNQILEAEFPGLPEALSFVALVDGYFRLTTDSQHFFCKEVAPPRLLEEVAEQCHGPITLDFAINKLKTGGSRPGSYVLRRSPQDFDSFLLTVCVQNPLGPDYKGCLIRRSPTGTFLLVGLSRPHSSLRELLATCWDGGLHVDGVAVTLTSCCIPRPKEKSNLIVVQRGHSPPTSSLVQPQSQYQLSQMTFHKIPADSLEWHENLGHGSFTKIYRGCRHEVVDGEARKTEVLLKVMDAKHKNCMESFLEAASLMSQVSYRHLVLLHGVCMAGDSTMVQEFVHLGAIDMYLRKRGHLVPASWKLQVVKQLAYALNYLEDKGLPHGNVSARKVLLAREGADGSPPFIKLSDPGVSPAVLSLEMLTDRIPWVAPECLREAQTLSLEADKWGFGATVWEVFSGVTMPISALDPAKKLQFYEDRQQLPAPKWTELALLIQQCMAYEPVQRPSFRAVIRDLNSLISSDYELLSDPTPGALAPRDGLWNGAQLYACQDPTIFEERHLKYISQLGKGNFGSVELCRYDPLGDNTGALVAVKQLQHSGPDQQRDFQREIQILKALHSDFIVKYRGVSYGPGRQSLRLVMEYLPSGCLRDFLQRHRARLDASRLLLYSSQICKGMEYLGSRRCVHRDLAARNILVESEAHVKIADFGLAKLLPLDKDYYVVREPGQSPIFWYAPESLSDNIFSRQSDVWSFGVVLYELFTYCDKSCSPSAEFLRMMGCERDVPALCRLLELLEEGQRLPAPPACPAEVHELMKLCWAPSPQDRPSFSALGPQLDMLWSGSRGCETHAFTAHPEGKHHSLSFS
Method: as §1

LYN A = LYN A (Homo sapiens, UniProt P07948); assay: SelectScreen kinase assay
Method: as §1

RIPK2 = RIPK2 (Homo sapiens, UniProt O43353); assay: SelectScreen kinase assay
Method: as §1

SIK1 = SIK1 (Homo sapiens, UniProt P57059); assay: SelectScreen kinase assay
Method: as §1

STK3 (MST2) = STK3 (MST2) (Homo sapiens, UniProt Q13188); assay: SelectScreen kinase assay
Method: as §1

TESK1 = TESK1 (Homo sapiens, UniProt Q15569); assay: SelectScreen kinase assay
Method: as §1

endogenous FES^S700C = endogenous FES^S700C (Homo sapiens, UniProt P07332, S700C); assay: Gel-based target engagement in HL-60 neutrophils
Method: Data represent means ± SEM.
The term in situ is used to designate experiments in which live cell cultures are treated with inhibitor, whereas the term in vitro refers to experiments in which the inhibitor is incubated with cell lysates. Compounds were diluted in growth medium from a 1000x concentrated stock solution in DMSO. […] After 48 h, cells were treated with compound for 1 h. Cells were collected by suspension in PBS and centrifuged (1000g, 5 min, rt). Pellets were flash-frozen in liquid nitrogen and stored at −80 °C until use. For in situ treatment post-differentiation, HL-60 cells were differentiated as described above and incubated with compound for 1 h unless specified otherwise. Cells were collected by suspension for non-adherent cells and trypsinization for adherent cells. After collection, cells were centrifuged (200g, 5 min, rt) and washed in equal volume of PBS (1000g, 5 min, rt). Cell pellets were flash-frozen in liquid nitrogen and stored at −80 °C until use.

[1] = 1 h, 1 μM WEL028, 1 h preincubation
[2] = 1 µM, LanthaScreen Binding, listed as WEL028, 1 µM
[3] = read-out: Inhibition at 1 µM (%), 1 µM, LanthaScreen Binding

LYN A, sequence (P07948 whole entry): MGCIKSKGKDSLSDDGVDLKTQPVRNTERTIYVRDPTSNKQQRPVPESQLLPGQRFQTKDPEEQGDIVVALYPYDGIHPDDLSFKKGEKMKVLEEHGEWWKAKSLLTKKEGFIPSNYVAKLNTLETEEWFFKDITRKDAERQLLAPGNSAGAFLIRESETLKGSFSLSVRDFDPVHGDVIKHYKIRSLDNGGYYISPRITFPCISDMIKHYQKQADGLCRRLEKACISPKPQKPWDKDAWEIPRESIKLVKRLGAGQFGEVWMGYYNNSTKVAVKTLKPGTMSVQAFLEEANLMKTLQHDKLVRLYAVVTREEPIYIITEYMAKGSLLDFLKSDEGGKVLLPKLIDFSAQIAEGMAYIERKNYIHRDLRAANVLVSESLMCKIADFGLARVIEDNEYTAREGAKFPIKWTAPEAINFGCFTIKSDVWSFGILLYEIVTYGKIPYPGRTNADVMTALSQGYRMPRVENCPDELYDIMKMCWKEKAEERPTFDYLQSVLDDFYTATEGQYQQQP
endogenous FES^S700C, sequence (P07332 whole entry S700C): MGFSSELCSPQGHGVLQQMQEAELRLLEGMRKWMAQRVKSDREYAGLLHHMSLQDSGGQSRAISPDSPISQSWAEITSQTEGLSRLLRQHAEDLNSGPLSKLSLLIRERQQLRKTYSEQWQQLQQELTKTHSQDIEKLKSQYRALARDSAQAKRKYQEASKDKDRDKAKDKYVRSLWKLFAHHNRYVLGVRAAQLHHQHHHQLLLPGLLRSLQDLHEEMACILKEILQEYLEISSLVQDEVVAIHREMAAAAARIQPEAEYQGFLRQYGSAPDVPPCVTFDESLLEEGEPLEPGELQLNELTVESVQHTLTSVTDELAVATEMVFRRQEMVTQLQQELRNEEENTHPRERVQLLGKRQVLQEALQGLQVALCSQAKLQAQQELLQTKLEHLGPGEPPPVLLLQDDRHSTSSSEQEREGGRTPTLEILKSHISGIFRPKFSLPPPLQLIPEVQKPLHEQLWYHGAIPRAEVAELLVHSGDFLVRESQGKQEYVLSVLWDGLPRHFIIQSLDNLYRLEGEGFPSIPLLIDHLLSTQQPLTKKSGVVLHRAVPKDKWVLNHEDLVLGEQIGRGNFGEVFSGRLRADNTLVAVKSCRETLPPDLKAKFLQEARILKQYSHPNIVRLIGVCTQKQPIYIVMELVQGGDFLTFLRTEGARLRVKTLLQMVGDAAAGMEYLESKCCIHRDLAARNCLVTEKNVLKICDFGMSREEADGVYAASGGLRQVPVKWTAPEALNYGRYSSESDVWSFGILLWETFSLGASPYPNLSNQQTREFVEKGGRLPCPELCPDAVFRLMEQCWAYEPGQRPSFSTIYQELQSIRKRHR
CLK1, sequence (P49759 whole entry): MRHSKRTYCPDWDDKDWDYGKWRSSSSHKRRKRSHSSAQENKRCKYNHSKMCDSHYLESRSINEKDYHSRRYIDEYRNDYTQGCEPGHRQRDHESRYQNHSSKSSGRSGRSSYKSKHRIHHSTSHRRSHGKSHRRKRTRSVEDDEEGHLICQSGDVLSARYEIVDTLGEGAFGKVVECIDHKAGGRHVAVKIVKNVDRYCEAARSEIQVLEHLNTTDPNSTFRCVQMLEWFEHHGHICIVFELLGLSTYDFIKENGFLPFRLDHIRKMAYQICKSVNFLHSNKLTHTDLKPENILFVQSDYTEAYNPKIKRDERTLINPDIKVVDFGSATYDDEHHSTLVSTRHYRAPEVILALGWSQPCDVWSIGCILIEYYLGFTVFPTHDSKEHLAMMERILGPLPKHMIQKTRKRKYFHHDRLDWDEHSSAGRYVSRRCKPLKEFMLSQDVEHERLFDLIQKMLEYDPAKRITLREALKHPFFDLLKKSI
EGFR (ErbB1), sequence (P00533 25-1210): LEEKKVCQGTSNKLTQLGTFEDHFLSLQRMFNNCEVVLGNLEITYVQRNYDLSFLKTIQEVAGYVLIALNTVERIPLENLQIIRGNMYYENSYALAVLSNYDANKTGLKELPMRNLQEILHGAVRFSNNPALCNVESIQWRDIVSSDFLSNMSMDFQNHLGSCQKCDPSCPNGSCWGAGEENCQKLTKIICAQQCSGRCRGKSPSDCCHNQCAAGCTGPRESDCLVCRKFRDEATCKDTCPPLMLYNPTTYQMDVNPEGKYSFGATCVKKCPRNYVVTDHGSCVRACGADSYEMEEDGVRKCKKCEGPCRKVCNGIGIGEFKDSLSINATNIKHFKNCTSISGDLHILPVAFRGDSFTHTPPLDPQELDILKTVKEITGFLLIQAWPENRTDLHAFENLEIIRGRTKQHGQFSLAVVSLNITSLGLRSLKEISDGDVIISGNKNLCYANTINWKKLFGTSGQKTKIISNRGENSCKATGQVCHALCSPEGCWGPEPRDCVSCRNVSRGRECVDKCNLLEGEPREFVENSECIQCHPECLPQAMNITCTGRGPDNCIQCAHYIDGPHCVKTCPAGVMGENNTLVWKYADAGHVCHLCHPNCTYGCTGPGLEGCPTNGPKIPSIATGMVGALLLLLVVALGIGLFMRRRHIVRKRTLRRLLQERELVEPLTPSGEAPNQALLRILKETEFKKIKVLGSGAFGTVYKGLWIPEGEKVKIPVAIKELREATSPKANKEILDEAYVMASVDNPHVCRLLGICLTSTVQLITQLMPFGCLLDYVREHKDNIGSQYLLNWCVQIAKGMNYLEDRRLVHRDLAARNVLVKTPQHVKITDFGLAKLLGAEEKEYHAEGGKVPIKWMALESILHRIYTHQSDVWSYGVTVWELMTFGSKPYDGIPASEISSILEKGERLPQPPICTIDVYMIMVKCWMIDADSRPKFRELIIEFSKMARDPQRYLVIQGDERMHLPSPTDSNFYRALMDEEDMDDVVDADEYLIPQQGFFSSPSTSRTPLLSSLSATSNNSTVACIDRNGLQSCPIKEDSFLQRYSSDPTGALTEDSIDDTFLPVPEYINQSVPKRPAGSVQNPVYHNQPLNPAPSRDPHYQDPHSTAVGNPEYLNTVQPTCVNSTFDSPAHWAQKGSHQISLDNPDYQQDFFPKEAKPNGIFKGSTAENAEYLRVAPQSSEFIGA
TESK1, sequence (Q15569 whole entry): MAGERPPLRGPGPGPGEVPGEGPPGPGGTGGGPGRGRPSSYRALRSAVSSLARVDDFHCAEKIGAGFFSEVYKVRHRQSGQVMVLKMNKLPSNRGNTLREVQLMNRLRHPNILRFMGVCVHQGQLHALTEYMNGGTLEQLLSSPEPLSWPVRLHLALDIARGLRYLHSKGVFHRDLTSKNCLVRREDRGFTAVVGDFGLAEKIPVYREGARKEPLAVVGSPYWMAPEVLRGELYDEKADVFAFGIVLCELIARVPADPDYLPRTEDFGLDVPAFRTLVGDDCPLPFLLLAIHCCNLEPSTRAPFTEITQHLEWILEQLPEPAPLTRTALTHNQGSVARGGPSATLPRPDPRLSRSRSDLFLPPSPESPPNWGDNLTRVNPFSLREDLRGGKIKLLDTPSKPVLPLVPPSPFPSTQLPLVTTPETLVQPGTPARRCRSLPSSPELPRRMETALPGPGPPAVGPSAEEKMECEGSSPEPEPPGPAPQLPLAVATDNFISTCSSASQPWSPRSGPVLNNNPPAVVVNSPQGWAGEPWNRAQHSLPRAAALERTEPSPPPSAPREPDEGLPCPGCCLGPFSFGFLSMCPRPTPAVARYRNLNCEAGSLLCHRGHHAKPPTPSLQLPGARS
SIK1, sequence (P57059 whole entry): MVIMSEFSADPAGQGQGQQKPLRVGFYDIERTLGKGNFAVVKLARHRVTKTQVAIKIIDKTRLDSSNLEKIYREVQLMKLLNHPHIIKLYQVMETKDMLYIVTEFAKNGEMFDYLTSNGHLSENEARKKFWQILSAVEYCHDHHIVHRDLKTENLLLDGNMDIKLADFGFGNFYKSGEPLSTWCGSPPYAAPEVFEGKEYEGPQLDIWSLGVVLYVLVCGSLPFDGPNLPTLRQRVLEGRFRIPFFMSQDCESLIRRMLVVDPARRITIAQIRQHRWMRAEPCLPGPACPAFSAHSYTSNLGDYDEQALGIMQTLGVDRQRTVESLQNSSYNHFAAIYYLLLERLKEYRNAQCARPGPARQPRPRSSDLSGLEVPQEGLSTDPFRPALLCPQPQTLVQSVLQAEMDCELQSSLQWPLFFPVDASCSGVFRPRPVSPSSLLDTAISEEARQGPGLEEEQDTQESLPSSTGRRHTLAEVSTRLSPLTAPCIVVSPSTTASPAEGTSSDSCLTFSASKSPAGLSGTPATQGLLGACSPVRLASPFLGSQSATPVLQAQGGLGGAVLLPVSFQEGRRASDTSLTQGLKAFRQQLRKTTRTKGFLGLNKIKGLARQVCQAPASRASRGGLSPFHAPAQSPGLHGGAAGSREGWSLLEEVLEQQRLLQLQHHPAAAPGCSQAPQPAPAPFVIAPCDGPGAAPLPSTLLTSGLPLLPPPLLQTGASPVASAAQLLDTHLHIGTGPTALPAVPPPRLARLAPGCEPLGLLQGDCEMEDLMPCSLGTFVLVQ
STK3 (MST2), sequence (Q13188 whole entry): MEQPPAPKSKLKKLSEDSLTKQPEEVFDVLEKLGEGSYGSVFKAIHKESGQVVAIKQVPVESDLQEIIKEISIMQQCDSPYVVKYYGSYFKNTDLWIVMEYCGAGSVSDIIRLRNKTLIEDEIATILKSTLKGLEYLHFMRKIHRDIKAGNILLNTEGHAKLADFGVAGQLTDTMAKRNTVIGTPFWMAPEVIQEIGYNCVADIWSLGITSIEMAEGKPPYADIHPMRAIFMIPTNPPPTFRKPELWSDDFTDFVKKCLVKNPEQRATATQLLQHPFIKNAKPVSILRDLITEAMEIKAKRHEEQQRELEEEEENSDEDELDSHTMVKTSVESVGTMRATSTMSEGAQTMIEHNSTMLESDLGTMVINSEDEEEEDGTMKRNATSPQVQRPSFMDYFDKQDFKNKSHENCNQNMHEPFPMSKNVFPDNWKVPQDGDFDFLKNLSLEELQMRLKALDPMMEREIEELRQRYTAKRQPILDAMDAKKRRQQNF

C#CCOc1ccc(Nc2ncc(Cl)c(Nc3ccccc3NC(=O)C=C)n2)c(OC)c1 [Compound 6]
inhibition at 1 µM (CLK1; [1]): 5% | Inhibition at 1 µM (%) (CLK1; CLK1, 1 µM, ZLYTE, ATP Km app, listed as WEL028, 1 µM): 1% and 8% | Inhibition (%) (EGFR (ErbB1); 1 μM WEL028, 1 h preincubation): 6% | Inhibition at 1 µM (%) (EGFR (ErbB1); EGFR (ErbB1), 1 µM, ZLYTE, ATP Km app, listed as WEL028, 1 µM): 8% | inhibition at 1 µM (EGFR (ErbB1); read-out: Inhibition at 1 µM (%), EGFR (ErbB1), 1 µM, ZLYTE, ATP Km app): 4% | inhibition at 1 µM (EPHB4; [1]): 1% | Inhibition at 1 µM (%) (EPHB4): 3% | Inhibition at 1 µM (%) (EPHB4; listed as WEL028, 1 µM): -1% | inhibition at 1 µM (JAK3; [1]): 14% | Inhibition at 1 µM (%) (JAK3; JAK3, 1 µM, ZLYTE, ATP Km app, listed as WEL028, 1 µM): 10% | inhibition at 1 µM (JAK3; read-out: Inhibition at 1 µM (%), JAK3, 1 µM, ZLYTE, ATP Km app): 18% | inhibition at 1 µM (LYN A; [1]): 5% | Inhibition at 1 µM (%) (LYN A; LYN A, 1 µM, ZLYTE, ATP Km app, listed as WEL028, 1 µM): 6% | inhibition at 1 µM (LYN A; read-out: Inhibition at 1 µM (%), LYN A, 1 µM, ZLYTE, ATP Km app): 5% | inhibition at 1 µM (RIPK2; 1 h): 1% | inhibition at 1 µM (RIPK2; read-out: Inhibition at 1 µM (%)): 1% | Inhibition (%) (SIK1; 1 μM WEL028, 1 h preincubation): 5% | Inhibition at 1 µM (%) (SIK1; [2]): 5% | inhibition at 1 µM (SIK1; [3]): 4% | Inhibition at 1 µM (%) (STK3 (MST2); 1 µM, ZLYTE, ATP Km app): 15% | inhibition at 1 µM (STK3 (MST2); [1]): 5% | Inhibition at 1 µM (%) (TESK1; [2]): 9% | inhibition at 1 µM (TESK1; [1]): 10% | inhibition at 1 µM (TESK1; [3]): 10% | Inhibition of FES in live neutrophils (endogenous FES^S700C; 100 nM, 1 h): complete and selective inhibition of FES | Relative FES labeling (%) (endogenous FES^S700C; Figure 7b, replicates, listed as WEL028): 9.291% and 9.41% and 8.966%
